{
  "source": "paper PMC9416200",
  "about": "“Antifungal Potential of Synthetic Peptides against Cryptococcus neoformans: Mechanism of Action Studies Reveal Synthetic Peptides Induce Membrane–Pore Formation, DNA Degradation, and Apoptosis” (Pharmaceutics, 2022)",
  "key": {"[1]": {"system": "Cryptococcus neoformans (ATCC 32045)", "assay": "Minimum inhibitory concentration assay, broth microdilution", "assay_type": "cell-based", "conditions": "YPD, 10^6 cells mL^−1, peptides 50 to 0.004 µg mL^−1, 24 h, absorbance 600 nm, ND = MIC50 not reached, three independent experiments"}, "[2]": {"system": "laccase from C. neoformans", "conditions": "cited from earlier work"}, "C. neoformans infection": {"system": "C. neoformans infection", "set-up": "method as in PMID 34203688", "conditions": "treated mice; cited from earlier work"}},
  "data": [
    {"smiles": "C[C@@H]1[C@H](O)[C@@H](C)/C=C/C=C/CC/C=C/C=C/C=C/C=C/C(O[C@H]2O[C@H](C)[C@@H](O)[C@H](N)[C@@H]2O)CC2O[C@](O)(CC(O)C(O)CCC(O)CC(O)CC(O)CC(=O)O[C@H]1C)CC(O)C2C(=O)O", "note": "(some centres unmarked) [Nystatin]", "values": [
      {"measurement": "MIC50 against C. neoformans", "setting": "[1]; concentration required to inhibit 50% of yeast growth", "value": 250, "unit": "µg/mL"}
    ]},
    {"smiles": "O=c1oc2c(O)c(O)cc3c(=O)oc4c(O)c(O)cc1c4c23", "note": "[EA, Ellagic acid]", "values": [
      {"measurement": "inhibition of laccase from C. neoformans", "setting": "[2]", "value": "interacts and inhibits the laccase"},
      {"measurement": "survival rate toward C. neoformans infection", "setting": "C. neoformans infection", "value": 70, "unit": "%"}
    ]},
    {"smiles": "CCC(C)n1ncn(-c2ccc(N3CCN(c4ccc(OCC5COC(Cn6cncn6)(c6ccc(Cl)cc6Cl)O5)cc4)CC3)cc2)c1=O", "note": "(centres unmarked) [Itraconazole]", "values": [
      {"measurement": "MIC50", "setting": "[1]; Cryptococcus neoformans, ATCC32045, concentration required to inhibit 50% of yeast growth, read-out: MIC50 against C. neoformans", "value": 500, "unit": "µg/mL"}
    ]},
    {"smiles": "OC(Cn1cncn1)(Cn1cncn1)c1ccc(F)cc1F", "note": "[fluconazole]", "values": [
      {"measurement": "survival rate toward C. neoformans infection", "setting": "C. neoformans infection", "value": 20, "unit": "%"}
    ]}
  ]
}
